Test results reported in PubChem BioAssay AID2060500 (Molecular Pharmacology Branch, DTP, NCI, 2025).

Test system: 596521-263-R-J1-PDC complex spheroids, viability % of control
Assay: Anticancer human tumor 596521-263-R-J1-PDC patient-derived soft tissue sarcoma cell line growth inhibition [GQUAD]
Conditions: for IC50: curve of first compound; for viability, T/C: stronger effect = lower value
Outline: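 Tumor cells were grown as complex spheroids with HUVEC endothelial cells and mesenchymal stem cells as stroma. G-quadruplex stabilizers were combined with targeted agents over half-log dilutions from near the clinical Cmax, or from 10 microM.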
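Note: spheroids exposed to drugs for 7 days before viability reading.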
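Throughout, for viability, T/C: 100% = DMSO vehicle control viability.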

Compound `Cc1[nH]c2ccccc2c1CCNCc1ccc(/C=C/C(=O)NO)cc1` + CN(C)c1ccc(Nc2c3ccc(NC(=O)CCN4CCCC4)cc3nc3cc(NC(=O)CCN4CCCC4)ccc23)cc1 has an IC50 (second compound 0.0316 µM) of 46.6 nM, an IC50 (second compound 0.1 µM) of 42.4 nM and an IC50 (second compound 0.316 µM) of 31.8 nM. For the same compound, the IC50 (second compound 1 µM) was 36.8 nM, the IC50 (second compound 3.16 µM) was 24.9 nM and the IC50 (second compound 10 µM) was 13.5 nM. For the same compound, the viability, T/C (second compound 0.0316 µM, first compound 0.000999 µM) was 102%, the viability, T/C (second compound 0.0316 µM, first compound 0.00316 µM) was 89.2% and the viability, T/C (second compound 0.0316 µM, first compound 0.00999 µM) was 79.8%. For the same compound, the viability, T/C (second compound 0.0316 µM, first compound 0.0316 µM) was 58.1%, the viability, T/C (second compound 0.0316 µM, first compound 0.0999 µM) was 32.9% and the viability, T/C (second compound 0.0316 µM, first compound 0.316 µM) was 1.76%. For the same compound, the viability, T/C (second compound 0.1 µM, first compound 0.000999 µM) was 94.7%, the viability, T/C (second compound 0.1 µM, first compound 0.00316 µM) was 94.9% and the viability, T/C (second compound 0.1 µM, first compound 0.00999 µM) was 78.1%. The viability, T/C (second compound 0.1 µM, first compound 0.0316 µM) was 58.4%, the viability, T/C (second compound 0.1 µM, first compound 0.0999 µM) was 27.4% and the viability, T/C (second compound 0.1 µM, first compound 0.316 µM) was 2.91%. For the same compound, the viability, T/C (second compound 0.316 µM, first compound 0.000999 µM) was 102%, the viability, T/C (second compound 0.316 µM, first compound 0.00316 µM) was 81.3% and the viability, T/C (second compound 0.316 µM, first compound 0.00999 µM) was 77%. It also gave a viability, T/C (second compound 0.316 µM, first compound 0.0316 µM) of 50.4%, a viability, T/C (second compound 0.316 µM, first compound 0.0999 µM) of 22.8% and a viability, T/C (second compound 0.316 µM, first compound 0.316 µM) of 1.67%. It also gave a viability, T/C (second compound 1 µM, first compound 0.000999 µM) of 90.6%, a viability, T/C (second compound 1 µM, first compound 0.00316 µM) of 88.3% and a viability, T/C (second compound 1 µM, first compound 0.00999 µM) of 75.6%. It also gave a viability, T/C (second compound 1 µM, first compound 0.0316 µM) of 54.8%, a viability, T/C (second compound 1 µM, first compound 0.0999 µM) of 23.3% and a viability, T/C (second compound 1 µM, first compound 0.316 µM) of 1.36%. The viability, T/C (second compound 3.16 µM, first compound 0.000999 µM) was 78.6%, the viability, T/C (second compound 3.16 µM, first compound 0.00316 µM) was 82.4% and the viability, T/C (second compound 3.16 µM, first compound 0.00999 µM) was 64.7%. It also gave a viability, T/C (second compound 3.16 µM, first compound 0.0316 µM) of 46.2%, a viability, T/C (second compound 3.16 µM, first compound 0.0999 µM) of 18.4% and a viability, T/C (second compound 3.16 µM, first compound 0.316 µM) of 1.06%. The viability, T/C (second compound 10 µM, first compound 0.000999 µM) was 62.2%, the viability, T/C (second compound 10 µM, first compound 0.00316 µM) was 53.7% and the viability, T/C (second compound 10 µM, first compound 0.00999 µM) was 57.4%. The viability, T/C (second compound 10 µM, first compound 0.0316 µM) was 36.4%, the viability, T/C (second compound 10 µM, first compound 0.0999 µM) was 13.3% and the viability, T/C (second compound 10 µM, first compound 0.316 µM) was 0.5%.
